Earlier results in US5690961A, “Acidic polysaccharides crosslinked with polycarboxylic acids and their uses” (Hercules Incorporated, priority 1994, dated 1997).

Settings: in vivo

## hyaluronic acid
  half-life of hyaluronic acid injected in a joint: about 13 hours
